Where “and” joins values, the source holds several entries; their conditions need not be identical. Equal values may be shown once. Inconclusive results and toxic doses are left out.
System: P388 leukemia ip, CD2F1 mice, survival T/C
Assay: NCI In Vivo Anticancer Drug Screen. Data for tumor model P388 Leukemia (intraperitoneal) in CD2F1 (CDF1) mice
Conditions: endpoint: median survival time, higher = longer survival
Procedure, shortened: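 Mice carrying the transplanted tumor received test compound or vehicle. Survival was recorded in each group, and the value is the treated-group measurement divided by that of the vehicle-treated control group.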

[1] = dose: 60.0 mg/kg/injection, schedule: Q01DX005 (ip), vehicle: saline with Tween-80
[2] = dose: 120.0 mg/kg/injection, schedule: Q01DX005 (ip), vehicle: saline with Tween-80
[3] = dose: 240.0 mg/kg/injection, schedule: Q01DX005 (ip), vehicle: saline with Tween-80
[4] = dose: 50.0 mg/kg/injection, schedule: Q01DX009 (ip), vehicle: Klucel (hydroxypropylcellulose) (HPC)
[5] = dose: 100.0 mg/kg/injection, schedule: Q01DX009 (ip), vehicle: Klucel (hydroxypropylcellulose) (HPC)
[6] = dose: 50.0 mg/kg/injection, schedule: Q01DX009 (ip), vehicle: saline with Tween-80
[7] = dose: 100.0 mg/kg/injection, schedule: Q01DX009 (ip), vehicle: saline with Tween-80
[8] = dose: 12.5 mg/kg/injection, schedule: Q01DX009 (ip), vehicle: water
[9] = dose: 25.0 mg/kg/injection, schedule: Q01DX009 (ip), vehicle: saline with Tween-80
[10] = dose: 50.0 mg/kg/injection, schedule: Q04DX003 (ip), vehicle: Klucel (hydroxypropylcellulose) (HPC)

## CS/C(=N\S(=O)(=O)c1ccccc1)NNC(=O)c1c(-c2c(Cl)cccc2Cl)noc1C
[1]
  T/C: 100 % of control
[2]
  T/C: 100 % of control
[3]
  T/C: 91 % of control

## CC1=C(C)Cn2c(=O)c3cc4ccccc4cc3c(=O)n2C1
[4]
  T/C: 90 % of control
[5]
  T/C: 90 % of control

## ClCCCCCCOC1CCCCO1 (stereo not given)
[6]
  T/C: 110 % of control
[7]
  T/C: 106 % of control
dose: 200.0 mg/kg/injection, schedule: Q01DX009 (ip), vehicle: saline with Tween-80
  T/C: 97 % of control

## Clc1ccc(-c2csc3cccc[n+]23)cc1
dose: 12.5 mg/kg/injection, schedule: Q01DX009 (ip), vehicle: Klucel (hydroxypropylcellulose) (HPC)
  T/C: 103 % of control
dose: 25.0 mg/kg/injection, schedule: Q01DX009 (ip), vehicle: Klucel (hydroxypropylcellulose) (HPC)
  T/C: 100 % of control
[4]
  T/C: 103 % of control

## Cc1ccnc(NN=O)c1
dose: 1.5 mg/kg/injection, schedule: Q01DX009 (ip), vehicle: water
  T/C: 109 % of control
dose: 1.56 mg/kg/injection, schedule: Q01DX009 (ip), vehicle: water
  T/C: 100 % of control
dose: 3.0 mg/kg/injection, schedule: Q01DX009 (ip), vehicle: water
  T/C: 109 % of control
dose: 3.12 mg/kg/injection, schedule: Q01DX009 (ip), vehicle: water
  T/C: 117 % of control
dose: 6.25 mg/kg/injection, schedule: Q01DX009 (ip), vehicle: water
  T/C: 159 % of control
[8]
  T/C: 87 % of control

## O=C1CC2(C(=O)NN1)C1=C(c3ccccc3CC1)N1CCCC12 (stereo not given)
dose: 11.25 mg/kg/injection, schedule: Q01DX009 (ip), vehicle: Klucel (hydroxypropylcellulose) (HPC)
  T/C: 100 % of control
dose: 22.5 mg/kg/injection, schedule: Q01DX009 (ip), vehicle: Klucel (hydroxypropylcellulose) (HPC)
  T/C: 102 % of control
dose: 45.0 mg/kg/injection, schedule: Q01DX009 (ip), vehicle: Klucel (hydroxypropylcellulose) (HPC)
  T/C: 100 % of control
dose: 90.0 mg/kg/injection, schedule: Q01DX009 (ip), vehicle: Klucel (hydroxypropylcellulose) (HPC)
  T/C: 100 % of control

## CCCC[P+](CCCC)(CCCC)CC(=O)O
[9]
  T/C: 97 % of control
[6]
  T/C: 100 % of control
[7]
  T/C: 95 % of control

## CCOC(=O)/C=C(\C)Nc1ccccc1N
dose: 100.0 mg/kg/injection, schedule: Q01DX001 (ip), vehicle: saline with Tween-80
  T/C: 97 % of control
dose: 200.0 mg/kg/injection, schedule: Q01DX001 (ip), vehicle: saline with Tween-80
  T/C: 93 % of control

## COc1cccc(C(=O)c2ccncc2C)c1OC
[8]
  T/C: 103 % of control
dose: 25.0 mg/kg/injection, schedule: Q01DX009 (ip), vehicle: water
  T/C: 102 % of control
dose: 50.0 mg/kg/injection, schedule: Q01DX009 (ip), vehicle: water
  T/C: 100 % of control
dose: 100.0 mg/kg/injection, schedule: Q01DX009 (ip), vehicle: water
  T/C: 97 % of control
dose: 200.0 mg/kg/injection, schedule: Q01DX009 (ip), vehicle: water
  T/C: 102 % of control

## CCC1(O)CC(OC2CC(O)C(O)CO2)c2c(O)c3c(c(O)c2C1C(=O)OC)C(=O)c1cccc(O)c1C3=O (stereo not given)
dose: 1.56 mg/kg/injection, schedule: Q01DX009 (ip), vehicle: other
  T/C: 90 % of control
dose: 3.13 mg/kg/injection, schedule: Q01DX009 (ip), vehicle: other
  T/C: 88 % of control
dose: 6.25 mg/kg/injection, schedule: Q01DX009 (ip), vehicle: other
  T/C: 101 % of control
dose: 12.5 mg/kg/injection, schedule: Q01DX009 (ip), vehicle: other
  T/C: 115 % of control
dose: 25.0 mg/kg/injection, schedule: Q01DX009 (ip), vehicle: other
  T/C: 92 % of control

## CN(C)CCSC1=Nc2ccc(Cl)cc2C(c2ccccc2Cl)N(C)C1 (stereo not given)
dose: 60.0 mg/kg/injection, schedule: Q01DX005 (ip), vehicle: Klucel (hydroxypropylcellulose) (HPC)
  T/C: 100 % of control
dose: 120.0 mg/kg/injection, schedule: Q01DX005 (ip), vehicle: Klucel (hydroxypropylcellulose) (HPC)
  T/C: 100 % of control

## CCn1c(=O)c(Cl)c2n(C)c3ccccc3n2c1=O
[1]
  T/C: 97 % of control
[2]
  T/C: 95 % of control
[3]
  T/C: 94 % of control

## C/C=C/C=C/C1=C2C(=O)N(c3ccccc3)N=C2CC(C)O1 (stereo not given)
dose: 50.0 mg/kg/injection, schedule: Q01DX005 (ip), vehicle: Klucel (hydroxypropylcellulose) (HPC)
  T/C: 100 % of control
dose: 100.0 mg/kg/injection, schedule: Q01DX005 (ip), vehicle: Klucel (hydroxypropylcellulose) (HPC)
  T/C: 104 % of control

## CCOc1ccc(C[Se][Se]Cc2ccc(OCC)cc2)cc1
[4]
  T/C: 109 % of control
[5]
  T/C: 91 % of control

## COc1ccc(C2(c3ccc(OC)cc3)ON(C(c3ccccc3)c3ccccc3)C2=O)cc1
[1]
  T/C: 95 % of control
[2]
  T/C: 91 % of control
[3]
  T/C: 89 % of control

## CN(C)CCCN1c2ccccc2Sc2ccc(Cl)cc21
dose: 1.0 mg/kg/injection, schedule: Q01DX005 (ip), vehicle: saline
  T/C: 99 % of control
dose: 2.0 mg/kg/injection, schedule: Q01DX005 (ip), vehicle: saline
  T/C: 96 % of control
dose: 4.0 mg/kg/injection, schedule: Q01DX005 (ip), vehicle: saline
  T/C: 104 % of control
dose: 6.25 mg/kg/injection, schedule: Q01DX009 (ip), vehicle: saline with Tween-80
  T/C: 95 % of control
dose: 7.5 mg/kg/injection, schedule: Q04DX003 (ip), vehicle: saline
  T/C: 112 % of control
dose: 8.0 mg/kg/injection, schedule: Q01DX005 (ip), vehicle: saline
  T/C: 106 % of control
dose: 12.5 mg/kg/injection, schedule: Q04DX003 (ip), vehicle: Klucel (hydroxypropylcellulose) (HPC)
  T/C: 111 % of control
dose: 12.5 mg/kg/injection, schedule: Q04DX003 (ip), vehicle: saline
  T/C: 108 % of control and 113 % of control and 120 % of control
dose: 15.0 mg/kg/injection, schedule: Q04DX003 (ip), vehicle: saline
  T/C: 120 % of control
dose: 16.0 mg/kg/injection, schedule: Q01DX005 (ip), vehicle: saline
  T/C: 106 % of control
[9]
  T/C: 100 % of control
dose: 25.0 mg/kg/injection, schedule: Q04DX003 (ip), vehicle: saline
  T/C: 111 % of control and 114 % of control and 118 % of control
dose: 32.0 mg/kg/injection, schedule: Q01DX005 (ip), vehicle: saline
  T/C: 116 % of control
[10]
  T/C: 108 % of control
dose: 50.0 mg/kg/injection, schedule: Q04DX003 (ip), vehicle: saline
  T/C: 105 % of control
dose: 64.0 mg/kg/injection, schedule: Q01DX005 (ip), vehicle: saline
  T/C: 105 % of control
dose: 100.0 mg/kg/injection, schedule: Q04DX003 (ip), vehicle: saline
  T/C: 99 % of control

## C(=C\c1cc(-c2cc(/C=C/c3ccccc3)[nH]n2)n[nH]1)/c1ccccc1
[1]
  T/C: 100 % of control
[2]
  T/C: 99 % of control

## O=C(O)C1Cc2c([nH]c3ccccc23)CN1 (stereo not given)
dose: 12.5 mg/kg/injection, schedule: Q01DX009 (ip), vehicle: suspension in saline
  T/C: 100 % of control
dose: 25.0 mg/kg/injection, schedule: Q01DX009 (ip), vehicle: suspension in saline
  T/C: 109 % of control
dose: 50.0 mg/kg/injection, schedule: Q01DX009 (ip), vehicle: suspension in saline
  T/C: 105 % of control
dose: 100.0 mg/kg/injection, schedule: Q01DX009 (ip), vehicle: suspension in saline
  T/C: 106 % of control

## CN1CCN(c2ncc(S(=O)(=O)Cc3ccc(Cl)cc3)c(N)n2)CC1
dose: 100.0 mg/kg/injection, schedule: Q01DX001 (ip), vehicle: saline
  T/C: 95 % of control
dose: 200.0 mg/kg/injection, schedule: Q01DX001 (ip), vehicle: saline
  T/C: 98 % of control
dose: 400.0 mg/kg/injection, schedule: Q01DX001 (ip), vehicle: saline
  T/C: 98 % of control

## Clc1ccc(Cc2nc3ccccc3s2)cc1
[1]
  T/C: 106 % of control
[2]
  T/C: 121 % of control

## O=C(O)c1ccc(C(Cl)(Cl)Cl)cc1
dose: 100.0 mg/kg/injection, schedule: Q04DX003 (ip), vehicle: saline sonified
  T/C: 113 % of control
dose: 200.0 mg/kg/injection, schedule: Q04DX003 (ip), vehicle: saline sonified
  T/C: 113 % of control
dose: 400.0 mg/kg/injection, schedule: Q04DX003 (ip), vehicle: saline sonified
  T/C: 113 % of control

## COC(=O)/C=C(\C(=O)OC)C(C(C)=O)C(C)=NCCN=C(C)C(C(C)=O)/C(=C/C(=O)OC)C(=O)OC.[Cu] (stereo not given)
dose: 25.0 mg/kg/injection, schedule: Q04DX003 (ip), vehicle: Klucel (hydroxypropylcellulose) (HPC)
  T/C: 98 % of control
[10]
  T/C: 103 % of control
dose: 100.0 mg/kg/injection, schedule: Q04DX003 (ip), vehicle: Klucel (hydroxypropylcellulose) (HPC)
  T/C: 107 % of control and 117 % of control

## C=CC(=O)NC(C)(C)C(=O)O
dose: 50.0 mg/kg/injection, schedule: Q01DX009 (ip), vehicle: saline
  T/C: 99 % of control
dose: 100.0 mg/kg/injection, schedule: Q01DX009 (ip), vehicle: saline
  T/C: 97 % of control
dose: 200.0 mg/kg/injection, schedule: Q01DX009 (ip), vehicle: saline
  T/C: 99 % of control

From PubChem BioAssay AID330 (DTP/NCI, 2004)
